Source: US7517658B2, “Methods for preparing compositions using a SNORF33 receptor” (H. Lundbeck A/S, priority 1999, dated 2009)
“And” between values parts separate entries of the source, which are not always exact repeats. Identical values can stand only once.

Assays:
[1] = molecular target: T1, mouse SNORF33 (Mus musculus, UniProt Q923Y8); assay: cAMP assay at mouse SNORF33; assay type: cell-based
T1 construct: expressed in transfected cells; host or cells: COS-7 (membranes)
Protocol: (§1) The receptor-mediated stimulation or inhibition of cyclic AMP (cAMP) formation may be assayed in cells expressing the mammalian receptors. Cells are plated in 96-well plates or other vessels and preincubated in a buffer such as HEPES buffered saline (NaCl (150 mM), CaCl2 (1 mM), KCl (5 mM), glucose (10 mM)) supplemented with a phosphodiesterase inhibitor such as 5 mM theophylline, with or without protease inhibitor cocktail (For example, a typical inhibitor cocktail contains 2 μg/ml aprotinin, […] leupeptin, and 10 μg/ml phosphoramidon.) for 20 min at 37° C., in 5% CO2. Test compounds are added with or without […] forskolin and incubated for an additional 10 min at 37° C. The medium is then aspirated and the reaction stopped by the addition of 100 mM HCl or other methods. The plates are stored at 4° C. for 15 min, and the cAMP content in the stopping solution is measured by radioimmunoassay. Radioactivity may be quantified using a gamma counter equipped with data reduction software. Specific modifications may be performed to optimize the assay for the receptor or to alter the detection method of cAMP.
(§2) COS-7 cells were transiently transfected with rSNORF33 gene using the calcium phosphate method and plated in 96-well plates. 48 hours after transfection, cells were washed twice with Dulbecco's phosphate buffered saline (PBS) supplemented with 10 mM HEPES, 10 mM glucose, 5 mM theophylline and 10 μM pargyline and were incubated in the same buffer for 20 min at 37° C., in […] 5% CO2. Test compounds were added and cells were incubated for an additional 10 min at 37° C. The medium was then aspirated and the reaction stopped by the addition of 100 mM HCl. The plates were stored at −20° C. for 2-5 days. For cAMP measurement, plates were thawed and the cAMP content in each well was measured by radioimmunoassay cAMP Scintillation Proximity Assay (Amersham Pharmacia Biotech). Radioactivity was quantified using microbeta Trilux counter (Wallac).

[2] = molecular target: rSNORF33 (Rattus norvegicus, UniProt Q923Y9); assay: [3H]-TYR binding (saturation and displacement) to rSNORF33-transfected COS-7 membranes; design: expressed in transfected cells; host or cells: COS-7 (transient); details: rSNORF33 in transfected COS-7 membranes; 2–4 experiments; read-out: Mean Ki ± S.D.M., displacement of [3H]-tyramine
Protocol: (§3) Radioligand binding assays were performed by diluting membranes prepared from cells expressing the receptor (with co-expression of the rat G-protein alpha S subunit for human SNORF33) in 25 mM Gly-Gly buffer (Sigma, pH=7.4 @ 0° C.) containing 5 mM ascorbate and 10 μM pargyline (final protein concentration in assay=100-300 μg/ml). Membranes were then incubated with either [^3H]-TYR (American Radiochemicals, specific activity 60 mCi/μmole) or [^3H]-T (Amersham, specific activity 98 mCi/μmole) in the presence or absence of competing ligands on ice for 30 min in a total volume of 250 μl in 96 well microtiter plates. The bound ligand was separated from free by filtration through GF/B filters presoaked in 0.5% polyethyleneimine (PEI), using Tomtec (Wallac) or Brandel Cell Harvester vacuum filtration device. After addition of Ready Safe (Beckman) scintillation fluid, bound radioactivity was quantitated using a Trilux (Wallac) scintillation counter (approximately 20% counting efficiency of bound counts). Data was fit to non-linear curves using GraphPad Prism.
(§4) In this manner, agonist or antagonist compounds that bind to the receptor may be identified as they inhibit the binding of the labeled ligand to the membrane protein of cells expressing the said receptor. Non-specific binding was defined as the amount of radioactivity remaining after incubation of membrane protein in the presence of 10 μM of the unlabeled amine corresponding to the radioligand used. In equilibrium saturation binding assays, membrane preparations or intact cells transfected with the receptor are incubated in the presence of increasing concentrations of the labeled compound to determine the binding affinity of the labeled ligand. The binding affinities of unlabeled compounds may be determined in equilibrium competition binding assays, using a fixed concentration of labeled compound in the presence of varying concentrations of the displacing ligands.

[3] = molecular target: T2, hSNORF33 (Homo sapiens, UniProt Q96RJ0); assay: Intracellular cAMP release in human SNORF33-transfected COS-7 cells; assay type: cell-based; design: expressed in transfected cells; host or cells: COS-7 (transient); details: transiently transfected COS-7 cells; read-out: Mean EC50 ± S.D.M., stimulation of human SNORF33 measured by intracellular cAMP release
T2 sequence (Q96RJ0 1-339): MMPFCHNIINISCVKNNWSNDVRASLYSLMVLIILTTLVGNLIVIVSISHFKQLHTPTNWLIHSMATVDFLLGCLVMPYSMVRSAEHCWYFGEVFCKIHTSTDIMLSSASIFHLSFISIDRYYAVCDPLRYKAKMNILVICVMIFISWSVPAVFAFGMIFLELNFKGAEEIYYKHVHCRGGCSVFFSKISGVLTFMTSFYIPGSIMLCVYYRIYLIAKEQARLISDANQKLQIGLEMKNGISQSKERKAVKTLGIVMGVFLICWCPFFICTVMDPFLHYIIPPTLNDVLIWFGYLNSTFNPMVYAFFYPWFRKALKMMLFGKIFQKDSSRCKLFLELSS
Protocol: as §1, §2

[4] = molecular target: T2, hSNORF33; assay: [3H]-TYR binding (saturation and displacement) to human SNORF33 COS-7 membranes; design: expressed in transfected cells; host or cells: COS-7 (membranes); details: human SNORF33 in transfected COS-7 membranes; read-out: Mean Ki ± S.D.M., displacement of [3H]-tyramine
Protocol: as §3, with “[^3H]-TYR and [^3H]-T binding assays were performed essentially as described by Mallard et al. (1992), with minor modifications. Radioligand” for “Radioligand”
as §4

[5] = molecular target: T1, mouse SNORF33; assay: [3H]-TYR binding (saturation and displacement) to mouse SNORF33 COS-7 membranes; details: mouse SNORF33, displacement of [3H]TYR; read-out: Ki (individual determinations)
Protocol: as §3, with “[^3H]-TYR and [^3H]-T binding assays were performed essentially as described by Mallard et al. (1992), with minor modifications. Radioligand” for “Radioligand”
as §4

Chain of rSNORF33 (Q923Y9 whole entry): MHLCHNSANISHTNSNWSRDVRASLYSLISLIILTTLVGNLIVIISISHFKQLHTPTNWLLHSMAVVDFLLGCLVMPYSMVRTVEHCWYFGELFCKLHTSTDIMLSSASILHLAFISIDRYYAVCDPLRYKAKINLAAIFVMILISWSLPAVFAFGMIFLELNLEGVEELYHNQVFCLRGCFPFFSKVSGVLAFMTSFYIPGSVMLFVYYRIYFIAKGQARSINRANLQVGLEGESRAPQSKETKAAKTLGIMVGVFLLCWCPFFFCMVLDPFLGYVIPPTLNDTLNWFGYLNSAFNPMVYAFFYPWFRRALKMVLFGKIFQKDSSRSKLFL
T1 sequence (Q923Y8 whole entry): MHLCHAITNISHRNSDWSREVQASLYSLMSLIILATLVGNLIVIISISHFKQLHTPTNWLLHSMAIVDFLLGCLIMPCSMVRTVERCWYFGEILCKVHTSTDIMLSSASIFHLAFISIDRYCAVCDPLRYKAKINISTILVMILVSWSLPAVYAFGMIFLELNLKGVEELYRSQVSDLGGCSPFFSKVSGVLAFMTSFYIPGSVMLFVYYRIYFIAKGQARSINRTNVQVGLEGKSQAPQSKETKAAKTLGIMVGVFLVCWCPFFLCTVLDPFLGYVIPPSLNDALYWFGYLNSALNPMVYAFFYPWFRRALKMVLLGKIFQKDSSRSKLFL

Row | SMILES | Agonism in the cAMP assay [1] | Ki [2] [nM] | EC50 [3] [nM] | Ki [4] [nM] | Ki [5]
1 | NCCc1c[nH]c2ccccc12 [Tryptamine (T), Tryptamine] | full agonists | 70 ± 14 | 24000 | 1130 ± 372 | 140 nM
2 | NCCc1ccc(O)cc1 [Tyramine (TYR), Tyramine] | full agonists | 13 ± 4 | 214 ± 85 | 51 ± 11 | 19 nM and 20 nM
3 | NCC(O)c1ccc(O)cc1 (stereo not shown) [Octopamine (OCT), Octopamine] | – | 310 ± 71 | 4090 ± 95 | 417 ± 285 | –
